Results: paper PMC11351453 (BMC Chemistry, 2024)

Legend:
A549 cells = assay: cells; format: cell-based; settings: Homo sapiens, A549, 72 h, read-out: IC50 A549
H1975 cells = assay: AO staining analysis; format: cell-based; settings: T001-10027877 0.5, 1, 2 µM, AZD9291 1 µM

IC50 (A549 cells): 4.95 µM
SMILES: C=CC(=O)Nc1cc(Nc2nccc(-c3cn(C)c4ccccc34)n2)c(OC)cc1N(C)CCN(C)C [AZD9291]
cell morphology / induction of apoptosis (AO staining) (H1975 cells): induced significant shrinkage of the cell membrane
